Experimental findings from patent US8455649B2, “Insecticidal substituted azinyl derivatives” (Dow AgroSciences, LLC, priority 2007, dated 2013) are described below.

The structures appear in SMILES notation. Read-outs that look alike come from different tables or passages of the source.

Assay [1] has as its system Corn Earworm (Helicoverpa zea). Nature of the assay: Insecticidal diet-surface test for corn earworm. It counts as in vivo. As to conditions: 120 h, read-out: HELIZE AVG % Mortality (50 μg/cm^2). The protocol:
(§1) The compounds identified in Table 1 were tested against beet armyworm and corn earworm as follows:
(§2) Insecticidal Test for Corn Earworm (Helicoverpa zea) and Beet Armyworm (Spodoptera exigua).
(§3) To prepare test solution, the test compound was formulated at 2000 ppm solution as 4 mg/2 mL of 9 acetone:1 tap water. 50 μL of the 2000 ppm (equivalent to 50 μg/cm^2 dose on diet surface area) test solution was pipetted upon the surface of 1 mL of lepidopteran diet (Southland Multi-Species Lepidopteran Diet) contained in each of eight wells per insect species (one well=1 replication). A second-instar corn earworm and beet armyworm was placed upon the treated diet in each well once the solvent had air-dried. Trays containing the treated diet and larvae were covered and then held in a growth chamber at 25° C., 50-55% RH, and 16 hr light:8 hr dark for 5 days. Observation were conducted 5 days after treatment and infestation. The number of dead insects of 8 per species per treatment was then determined and the results are given in Table 2 as a percent control at a dose of […].

Assay [2] concerns Beet Armyworm (Spodoptera exigua). As to the kind of experiment: Insecticidal diet-surface test for beet armyworm. It counts as in vivo. Particulars: 120 h, read-out: LAPHEG AVG % Mortality (50 μg/cm^2). The protocol:
as §1, §2, §3

The mark [3] stands for this setting: second-instar larvae on treated diet, 50 μg/cm^2 on diet surface, 5 days after treatment, 8 insects per treatment.

On to `O=C(Nc1ccc(C(F)(F)F)cc1)Nc1nc(OCC(F)(F)C(F)F)cc(OCC(F)(F)C(F)F)n1` [Compound 175], for which the mortality at 50 µg/cm2 in assay [1] (setting [3]) and in assay [2] (setting [3]) was 100% in each case.

Take `COC(=O)CN(C(=O)Nc1nc(OCC(F)(F)F)cc(OCC(F)(F)F)n1)c1ccc(OC(F)(F)F)cc1` [Compound 28]: the mortality at 50 µg/cm2 in assay [1] (setting [3]) and in assay [2] (setting [3]) was 100% throughout.

Regarding `CN(C(=O)Nc1cc(OCC(F)(F)F)nc(OCC(F)(F)F)n1)c1ccc(Br)cc1` [Compound 108], the mortality at 50 µg/cm2 in assay [1] (setting [3]) and in assay [2] (setting [3]) was 100% each time.

As to `O=C(Nc1ccc(C(F)(F)F)cc1)Nc1nc(OCC(F)(F)F)nc(OCC(F)(F)F)n1` [Compound 116], the mortality at 50 µg/cm2 in assay [1] (setting [3]) amounted to 0%; in assay [2] (setting [3]) it was 100%.

For `CN(C(=S)Nc1nc(OCC(F)(F)F)cc(OCC(F)(F)F)n1)c1ccc(C(F)(F)F)cc1` [Compound 131, N′-[4,6-bis(2,2,2-trifluoroethoxy)pyrimidin-2-yl]-N-methyl-N-[4-(trifluoromethyl)phenyl]thiourea], the mortality at 50 µg/cm2 in assay [1] (setting [3]) and in assay [2] (setting [3]) was 100% throughout.

`CN(C(=O)Nc1nc(OCC(F)(F)F)cc(OCC(F)(F)F)n1)c1cc(F)c(Br)cc1F` [Compound 182]: the mortality at 50 µg/cm2 in assay [1] (setting [3]) and in assay [2] (setting [3]) was 100% in each case.

`Cc1c(OCC(F)(F)F)nc(NC(=O)N(C)c2ccc(Br)cc2)nc1OCC(F)(F)F` [Compound 140]: the mortality at 50 µg/cm2 in assay [1] (setting [3]) and in assay [2] (setting [3]) was 100% in each case.

With `CCOCN(C(=O)Nc1nc(OCC(F)(F)F)cc(OCC(F)(F)F)n1)c1ccc(C(F)(F)F)nc1` [Compound 90], the mortality at 50 µg/cm2 in assay [1] (setting [3]) and in assay [2] (setting [3]) was 100% in each case.

Turning to `O=C(Nc1ccc(C(F)(F)F)cc1)Nc1nc(NCC(F)(F)F)cc(OCC(F)(F)F)n1` [Compound 99], the mortality at 50 µg/cm2 in assay [1] (setting [3]) and in assay [2] (setting [3]) was 100% throughout.

With `CCOCN(C(=O)Nc1nc(OCC(F)(F)F)cc(OCC(F)(F)F)n1)c1ccc(Br)cc1` [Compound 74], the mortality at 50 µg/cm2 in assay [1] (setting [3]) and in assay [2] (setting [3]) was 100% in each case.

Take `CN(C(=O)Nc1nc(OCC(F)(F)F)cc(OCC(F)(F)F)n1)c1ccc(Cl)c(Cl)c1` [Compound 85]: the mortality at 50 µg/cm2 in assay [1] (setting [3]) and in assay [2] (setting [3]) was 100% in each case.

On to `CCN(C(=O)Nc1nc(OCC(F)(F)F)cc(OCC(F)(F)F)n1)c1ccc(Br)nc1` [Compound 46], for which the mortality at 50 µg/cm2 in assay [1] (setting [3]) and in assay [2] (setting [3]) was 100% throughout.

Consider `CN(C(=O)N(C)c1nc(OCC(F)(F)F)cc(OCC(F)(F)F)n1)c1ccc(C(F)(F)F)cc1` [Compound 12], for which the mortality at 50 µg/cm2 in assay [1] (setting [3]) and in assay [2] (setting [3]) was 100% each time.

Regarding `O=C(Nc1ccc(S(=O)(=O)C(F)(F)F)cc1)Nc1nc(OCC(F)(F)F)cc(OCC(F)(F)F)n1` [Compound 59], the mortality at 50 µg/cm2 was found to be 100% in assay [1] (setting [3]) and 0% in assay [2] (setting [3]).

Turning to `CN(C(=O)Nc1nc(OCC(F)(F)F)nc(OCC(F)(F)F)n1)c1ccc(Br)cc1` [Compound 119], the mortality at 50 µg/cm2 in assay [1] (setting [3]) amounted to 88%; in assay [2] (setting [3]) it was 100%.

Regarding `CN(C(=O)Nc1nc(OCC(F)(F)F)cc(OCC(F)(F)F)n1)c1ccc(C(F)(F)F)cc1` [Compound 31], the mortality at 50 µg/cm2 in assay [1] (setting [3]) and in assay [2] (setting [3]) was 100% throughout.

Turning to `[2H]C([2H])([2H])N(C(=O)Nc1nc(OCC(F)(F)F)cc(OCC(F)(F)F)n1)c1ccc(C(F)(F)F)cc1` [Compound 96], the mortality at 50 µg/cm2 in assay [1] (setting [3]) and in assay [2] (setting [3]) was 100% in each case.

On to `CN(C(=O)Nc1cc(OCC(F)(F)F)nc(OCC(F)(F)F)n1)c1ccc(OC(F)(F)F)cc1` [Compound 106], for which the mortality at 50 µg/cm2 in assay [1] (setting [3]) and in assay [2] (setting [3]) was 100% throughout.

Consider `O=C(Nc1ccc(C(F)(F)F)nc1)Nc1nc(OCC(F)(F)F)cc(OCC(F)(F)F)n1` [Compound 24], for which the mortality at 50 µg/cm2 in assay [1] (setting [3]) and in assay [2] (setting [3]) was 100% throughout.

`CC(C)(C)COCN(C(=O)Nc1nc(OCC(F)(F)F)cc(OCC(F)(F)F)n1)c1ccc(C(F)(F)F)cc1` [Compound 61]: the mortality at 50 µg/cm2 in assay [1] (setting [3]) and in assay [2] (setting [3]) was 100% throughout.

In the case of `CN(C(=O)Nc1nc(OCC(F)(F)F)cc(OCC(F)(F)F)n1)c1ccc(C(F)(F)C(F)(F)F)cc1` [Compound 152], the mortality at 50 µg/cm2 in assay [1] (setting [3]) and in assay [2] (setting [3]) was 100% each time.

As to `O=C(Nc1nc(OCC(F)(F)F)cc(OCC(F)(F)F)n1)N(c1ccc(OC(F)(F)F)cc1)C(F)(F)F` [Compound 93], the mortality at 50 µg/cm2 in assay [1] (setting [3]) and in assay [2] (setting [3]) was 100% in each case.

Take `CN(C(=O)Nc1nc(OCC(F)(F)F)cc(OCC(F)(F)F)n1)c1ccc(Br)nc1` [Compound 42]: the mortality at 50 µg/cm2 in assay [1] (setting [3]) and in assay [2] (setting [3]) was 100% throughout.

As to `COCCOCN(C(=O)Nc1nc(OCC(F)(F)F)cc(OCC(F)(F)F)n1)c1ccc(C(F)(F)F)cc1` [Compound 62], the mortality at 50 µg/cm2 in assay [1] (setting [3]) and in assay [2] (setting [3]) was 100% in each case.

Turning to `CCOCN(C(=O)N(COCc1ccccc1)c1nc(OCC(F)(F)F)cc(OCC(F)(F)F)n1)c1ccc(C(F)(F)F)cc1` [Compound 33, N-Benzyloxymethyl-N-[4,6-bis(2,2,2-trifluoroethoxy)pyrimidin-2-yl]-N′-ethoxymethyl-N′-[4-(trifluoromethyl)phenyl]urea], the mortality at 50 µg/cm2 in assay [1] (setting [3]) and in assay [2] (setting [3]) was 100% each time.

For the compound `O=C(O)CN(C(=O)Nc1nc(OCC(F)(F)F)cc(OCC(F)(F)F)n1)c1ccc(OC(F)(F)F)cc1` [Compound 32], the mortality at 50 µg/cm2 in assay [1] (setting [3]) and in assay [2] (setting [3]) was 100% in each case.

`CN(C(=O)Nc1cc(OCC(F)(F)F)nc(OCC(F)(F)F)n1)c1ccc(C(F)(F)F)nc1` [Compound 113]: the mortality at 50 µg/cm2 turned out to be 0% in assay [1] (setting [3]) and 100% in assay [2] (setting [3]).

With `CCOCN(C(=O)Nc1nc(OCC(F)(F)F)cc(OCC(F)(F)F)n1)c1ccc(OC(F)(F)F)cc1` [Compound 44], the mortality at 50 µg/cm2 in assay [1] (setting [3]) and in assay [2] (setting [3]) was 100% each time.

For the compound `CC(Oc1ccc(NC(=O)Nc2nc(OCC(F)(F)F)cc(OCC(F)(F)F)n2)cc1)C(F)(F)F` (centres unmarked) [Compound 17], the results for the mortality at 50 µg/cm2 in assay [1] (setting [3]) and in assay [2] (setting [3]) were 0% and 100%, respectively.

On to `CN(C(=O)Nc1cc(C(F)(F)F)cc(OCC(F)(F)F)n1)c1ccc(Br)nc1` [Compound 169], for which the mortality at 50 µg/cm2 in assay [1] (setting [3]) and in assay [2] (setting [3]) was 100% throughout.

Consider `CN(C(=O)Nc1nc(OCC(F)(F)F)cc(OCC(F)(F)F)n1)c1ccc(C#N)cn1` [Compound 128], for which the mortality at 50 µg/cm2 in assay [1] (setting [3]) amounted to 100%; in assay [2] (setting [3]) it was 88%.

As to `CN(C(=O)Nc1nc(OCC(F)(F)F)cc(OCC(F)(F)F)n1)c1ccc(F)cn1` [Compound 125], the mortality at 50 µg/cm2 in assay [1] (setting [3]) is 100%; in assay [2] (setting [3]) it was 88%.

Consider `CN(C(=O)Nc1nc(OCC(F)(F)F)cc(OCC(F)(F)F)n1)c1ccc(C(F)(F)F)cc1F` [Compound 161], for which the mortality at 50 µg/cm2 in assay [1] (setting [3]) and in assay [2] (setting [3]) was 100% in each case.

For `CN(C(=O)Nc1nc(OCC(F)(F)F)cc(OCC(F)(F)F)n1)c1ccc(C#N)c(Cl)c1` [Compound 92], the mortality at 50 µg/cm2 in assay [1] and in assay [2] was 100% each time.
